Assays:
[1] = In vitro metabolic stability in mouse liver lysate; type: in vitro ADME; settings: 24-hour incubation of RG4326
Method: Metabolic stability was evaluated by incubating each anti-miR-17 compound in a mouse liver lysate. After 24 hours, the percentage of intact compound remaining is calculated. Compounds that are not stable following a 24-hour incubation are potentially not stable in vivo.
(§1) Due to their reduced capacity for serum protein binding, which is a property that drives oligonucleotide distribution in the body, short oligonucleotides are not necessarily expected to have pharmacokinetic properties that make them suitable for use as drugs. RG4326 was incubated in mouse, monkey or human liver homogenate. The identity and concentration of RG4326 and metabolites was determined after a 24-hour incubation. RG4326 and metabolites were extracted using liquid-liquid extraction (LLE) and/or solid-phase extraction (SPE), which were then analyzed for identity and concentration using ion-pairing-reversed-phase high performance liquid chromatography coupled with time-of-flight mass spectrometry (IP—RP-HPLC-TOF).

[2] = In vitro metabolic stability in monkey liver lysate; type: in vitro ADME; settings: 24-hour incubation of RG4326
Method: as §1

[3] = In vitro metabolic stability in human liver lysate; type: in vitro ADME; settings: 24-hour incubation of RG4326
Method: as §1

Pcy mice = experiment: Efficacy in the Pcy model of PKD; type: in vivo, mouse
Text: Two experimental models of PKD were used to evaluate efficacy. Pkd2-KO mice spontaneously develop polycystic kidney disease, and were used as a model of ADPKD. See Patel et al., PNAS, 2013; 110 (26): 10765-10770. Pcy mice bearing a mutation in Nphp3 spontaneously develop polycystic kidney disease, with a slower progression of disease than that observed in the Pkd2-KO mice. The Pcy model is used as a model of nephronophthisis. See Happe and Peters, Nat. Rev. Nephrol., 2014; 10:587-601.
Cyst index is a histological measurement of cystic area relative to total kidney area. For this analysis, one kidney was perfused with cold PBS and 4% (wt/vol) paraformaldehyde and then harvested. Kidneys were fixed with 4% paraformaldehyde for 2 hours and then, embedded in paraffin for sectioning. Sagittal sections of kidneys were stained with hematoxylin and eosin (H&E). All image processing steps were automated and took place in freely available and open source software: An R1 script which used functions from the EBImage Bioconductor package2 and the ImageMagick3 suite of image processing tools. Kidney H&E images in Aperio SVS format were converted to TIFF images, and the first frame was retained for image analysis. First, the total kidney section area was calculated using image segmentation. Image segmentation was similarly used to find all internal structures including kidney cyst. A filter was applied to remove all objects less than a mean radius of three pixels. The cystic index is the image area associated with cysts divided by the total kidney areas. Cystic index was separately calculated for longitudinal and transverse kidney sections for each individual animal. Combined cystic index of individual animals were compared for each treatment groups.
RG4326 was tested in the Pcy mouse model. Wild-type mice were used as control group. From four weeks of age, Pcy mice were treated once per week via subcutaneous injection with RG4326 at a dose of 25 mg/kg, tool anti-miR-17 at a dose of 25 mg/kg, control oligonucleotide RG5124 at a dose of 25 mg/kg, or PBS. Each treatment group contained 15 male mice. Three treatments were administered on […] days of age, and weekly thereafter at 6, 7, 8, 9, 10, 11, 12, 13, and 14 weeks of age. Also tested was tolvaptan, a vasopressin V2-receptor antagonist (VRA) that is prescribed to some patients with polycystic kidney disease. Mice were sacrificed at 15 weeks of age. Body weight was recorded. One kidney was extracted and weighed and the other processed for histological analysis to calculate cyst index as described for the study in the Pkhd1/cre; Pkd2^F/F. Blood urea nitrogen (BUN) level and serum creatinine level were measured. Statistical significance was calculated by one-way ANOVA with Dunnett's multiple correction.

miR-17 = experiment: microRNA polysome shift assay (miPSA), kidney target engagement; type: in vivo, mouse; set-up: miPSA Score Wild Type Mice / miPSA Score PKD Mice / miPSA displacement score (mean): scale not given here; settings: kidney, seven days; for miPSA Score PKD Mice: JCK mice, single dose 30 mg/kg; for miPSA Score Wild Type Mice: single dose 3 mg/kg
Method: (§2) In vivo potency was evaluated using the microRNA polysome shift assay (miPSA). This assay was used to determine the extent to which compounds directly engage the miR-17 target in the kidney in normal and PKD mice. The miPSA relies on the principle that active miRNAs bind to their mRNA targets in translationally active high molecular weight (HMW) polysomes, whereas the inhibited miRNAs reside in the low MW (LMW) polysomes. Treatment with anti-miR results in a shift of the microRNA from HMW polysomes to LMW polysomes. Thus, the miPSA provides a direct measurement of microRNA target engagement by a complementary anti-miR (Androsavich et al., Nucleic Acids Research, 2015, 44: e13).
(§3) The miPSA was used to assess the potency of each compound, measured by the displacement score, in wild type and JCK mice. Tissue accumulation of anti-miR-17 compound was measured by extraction of compound using liquid-liquid extraction (LLE) and/or solid-phase extraction (SPE), followed by analysis of the identity and concentration of compound using ion-pairing-reversed-phase high performance liquid chromatography coupled with time-of-flight mass spectrometry (IP—RP-HPLC-TOF).
(§4) Wild type mice were administered a single dose of 3 mg/kg for the miPSA analysis, and a single dose of 30 mg/kg for the tissue accumulation analysis. JCK mice were administered a single dose of 30 mg/kg for both the miPSA and tissue accumulation analyses. Kidney tissue was collected seven days following the administration of anti-miR-17 compound. […] A higher kidney-to-liver ratio is generally preferred for a disease where the primary site of action is the kidney.
as §2, with “The” for “In vivo potency was evaluated using the”, “(miPSA),” for “(miPSA). This assay”, “identify” for “determine the extent to which”, “compounds that” for “compounds”, “engage” for “engage the”, “miR-17” for “miR-17 target”
For this experiment, the PKD model selected was the JCK model, a mouse model of slowly progressing renal cystic disease associated with the same gene that causes human nephronophthisis type 9. Renal cysts in this mouse develop in multiple regions of the nephron.
C57BL6 mice were treated with a single, subcutaneous dose of 0.3, 3, and 30 mg/kg of RG4326 or tool anti-miR-17 (described in Example 1). JCK mice were treated with a single, subcutaneous dose of 3, 30, and 100 mg/kg of RG4326 or tool anti-miR-17. PBS treatment was used as an additional control. At seven days post-treatment, mice were sacrificed, and kidney tissue was isolated for the miPSA. […] The displacement scores following treatment with RG4326 were greater than the displacement scores following treatment with the tool anti-miR-17 compound. The data for wild-type mice and JCK mice are also shown in FIG. 3A and FIG. 3B, respectively.
Pharmacokinetic behavior was assessed by administering a single subcutaneous 30 mg/kg dose of RG4326 or tool anti-miR-17 compound to wild-type mice. At one hour, four hours, eight hours, one day, seven days, 14 days, 28 days and 56 days following the single injection, mice were sacrificed and the mean concentration of anti-miR compound in kidney and liver tissue was measured (ug/g) as described above. The area-under-curve (AUC) was calculated for kidney and liver tissue using the formula ug*h/g, where ug is the amount of oligonucleotide in the tissue, h is the timepoint of tissue collection in hours, and g is the weight of the tissue. The ratio of kidney AUC to liver AUC was determined. Kidney tissue was also processed to the miPSA, to determine target engagement for each compound in this study. […]

[4] = Tissue accumulation in kidney and liver (kidney-to-liver ratio); type: in vivo, mouse; settings: single dose 30 mg/kg, seven days; for Kidney-to-Liver Ratio PKD Mice: JCK mice
Method: Pharmacokinetic properties and tissue distribution of select compounds were assessed in wild type C57BL6 mice and JCK mice (an experimental model of PKD). Compound was administered to wild type mouse at a dose of 0.3, 3, or 30 mg/kg, or to JCK mice at a dose of 3, 30, or 100 mg/kg. After seven days, mice were sacrificed. Kidney and liver tissues were collected. Concentration of anti-miR-17 compound was measured in liver and kidney. Compounds that accumulate to a greater level in kidney, relative to liver (i.e., have a higher kidney-to-liver ratio) were preferred.
as §3, §4

[5] = 25 mg/kg s.c. for oligonucleotides, sacrificed at 15 weeks of age

Compound	Ex Vivo Liver Lysate (% Analyte), Mouse [1] [%]	Ex Vivo Liver Lysate (% Analyte), Monkey [2] [%]	Ex Vivo Liver Lysate (% Analyte), Human [3] [%]	miPSA Score PKD Mice (miR-17)	miPSA Score Wild Type Mice (miR-17)	Kidney-to-Liver Ratio PKD Mice [4]	Kidney-to-Liver Ratio Wild Type Mice [4]	other results
5′-ASGSCMAF-3′ [Metabolite 2]	0.6	2.3	0.7					
5′-ASGSCMAFCF-3′ [Metabolite 1]	0.3	1.8	0.6					
Cc1ccccc1C(=O)Nc1ccc(C(=O)N2CCCC(O)c3cc(Cl)ccc32)c(C)c1 (stereo not shown) [Tolvaptan, tolvaptan]								efficacy on KW/BW ratio, BUN or cyst index (in words) (Pcy mice): not efficacious; BUN (mean) (Pcy mice; [5]): 24.4; Cystic Index (mean) (Pcy mice; [5]): 0.26; KW/BW Ratio (mean) (Pcy mice; [5]): 20.1
ASGMCFAFCFUFUFUMGS [Compound 4327]				1.53	2.85	9.4	24.9	
ASGSCMAMCMUMUMUSGS [Compound 4325]				2.00	1.82	5.7	12.4	
ASGSCMASCMUSUMUSGS [Compound 4324]				2.53	2.81	3.9	5.0	
